US10253004B2, “Indanylaminopyrazinylcyclopropanecarboxylic acids, pharmaceutical compositions and uses thereof” (Boehringer Ingelheim International GmbH, priority 2017, dated 2019)

Molecular target: human GPR40 receptor (Homo sapiens (Human), UniProt O14842)
Assay: IP1 accumulation measurements using the IPOne assay system
Type: cell-based
Settings: 1321N1 cells stably expressing human GPR40; IP1 accumulation; read-out: EC50
Description: IP1 accumulation measurements using the IPOne assay system—1321N1 cells stably expressing human GPR40 receptor (Euroscreen, Belgium) are seeded 24 h before the assay in white 384-well plates in culture medium containing 10% FCS, 1% Na-Pyruvate and 400 μg/mL G418. IP1 is assayed according to the manufacturer's description (Cisbio Bioassays, France). In brief, the assay is started by substitution of the culture medium by stimulation buffer (Hepes 10 mM, CaCl2 1 mM, MgCl2 0.5 mM, KCl 4.2 mM, NaCl 146 mM, glucose 5.5 mM and LiCl 50 mM, pH 7.4). Cells are stimulated for 1 h at 37° C., 5% CO2 by addition of the compounds that are diluted in stimulation buffer containing LiCl. Assays are stopped by adding HTRF-conjugates (IP1-d2 and Anti-IP1 cryptate Tb) and lysis buffer, provided by the manufacturer. After an incubation time of 1 h at room temperature plates are measured using an EnVision™, Perkin Elmer. The obtained fluorescence ratios at 665/615 […] are then used to calculate the pEC50 values using Assay Explorer 3.3 Software (Accelrys, Inc.) by interpolation using an IP1 reference curve and subsequent sigmoidal curve fitting allowing for a variable hill slope.

Chain of human GPR40 receptor (O14842 whole entry): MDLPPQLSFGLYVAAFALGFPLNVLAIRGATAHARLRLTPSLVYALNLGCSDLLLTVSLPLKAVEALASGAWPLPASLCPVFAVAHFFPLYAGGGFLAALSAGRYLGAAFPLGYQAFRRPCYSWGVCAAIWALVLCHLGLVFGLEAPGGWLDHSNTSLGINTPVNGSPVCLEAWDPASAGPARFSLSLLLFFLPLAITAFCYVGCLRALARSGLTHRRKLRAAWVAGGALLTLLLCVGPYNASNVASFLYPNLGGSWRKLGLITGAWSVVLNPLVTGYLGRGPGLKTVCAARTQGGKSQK

Structure (SMILES) | EC50 [nM]
Cc1cc(OCCC(C)(C)O)cc(C)c1-c1ccc(F)c2c1CC[C@H]2Nc1cnc(C2C[C@@H]2C(=O)O)cn1 (stereo partly drawn) [Example 1, trans-2-(5-{(R)-7-Fluoro-4-[4-(3-hydroxy-3-methyl-butoxy)-2,6-dimethyl-phenyl]-indan-1-ylamino}-pyrazin-2-yl)-cyclopropanecarboxylic acid] | 7
Cc1cc(OCCC(C)(C)O)cc(C)c1-c1ccc(F)c2c1CC[C@H]2Nc1cnc([C@@H]2C[C@H]2C(=O)O)cn1 [Example 3, (1R,2R)-2-(5-{(R)-7-Fluoro-4-[4-(3-hydroxy-3-methyl-butoxy)-2,6-dimethyl-phenyl]-indan-1-ylamino}-pyrazin-2-yl)-cyclopropanecarboxylic acid] | 164
Cc1cc(OCCCS(C)(=O)=O)cc(C)c1-c1ccc(F)c2c1CC[C@H]2Nc1cnc([C@@H]2C[C@H]2C(=O)O)cn1 [Example 5, (1R,2R)-2-(5-{(R)-7-Fluoro-4-[4-(3-methanesulfonyl-propoxy)-2,6-dimethyl-phenyl]-indan-1-ylamino}-pyrazin-2-yl)-cyclopropanecarboxylic acid] | 519
Cc1cc(-c2nnn(C)n2)cc(C)c1-c1cccc2c1CC[C@H]2Nc1cnc([C@H]2C[C@@H]2C(=O)O)cn1 [Example 6, (1S,2S)-2-(5-{(R)-4-[2,6-Dimethyl-4-(2-methyl-2H-tetrazol-5-yl)-phenyl]-indan-1-ylamino}-pyrazin-2-yl)-cyclopropanecarboxylic acid] | 3
COc1ccc(-c2cccc3c2CC[C@H]3Nc2cnc([C@H]3C[C@@H]3C(=O)O)cn2)cc1F [Example 8, (1S,2S)-2-{5-[(R)-4-(3-Fluoro-4-methoxy-phenyl)-indan-1-ylamino]-pyrazin-2-yl}-cyclopropanecarboxylic acid] | 163
COc1cnc(-c2ccc(-c3cccc4c3CC[C@H]4Nc3cnc([C@H]4C[C@@H]4C(=O)O)cn3)cc2)cn1 [Example 9, (1S,2S)-2-(5-{(R)-4-[4-(5-Methoxy-pyrazin-2-yl)-phenyl]-indan-1-ylamino}-pyrazin-2-yl)-cyclopropanecarboxylic acid] | 35
Cc1cc(C(N)=O)cc(C)c1-c1ccc(F)c2c1CC[C@H]2Nc1cnc([C@H]2C[C@@H]2C(=O)O)cn1 [Example 10] | 24
Cc1cc(-c2cc(=O)n(C)cn2)cc(C)c1-c1ccc(F)c2c1CC[C@H]2Nc1cnc([C@H]2C[C@@H]2C(=O)O)cn1 [Example 11] | 6
Cc1cc(OCC2(O)CCS(=O)(=O)CC2)cc(C)c1-c1ccc(F)c2c1CC[C@H]2Nc1cnc([C@H]2C[C@@H]2C(=O)O)cn1 [Example 12] | 14
Cc1cc(OCC2CCOCC2)cc(C)c1-c1ccc(F)c2c1CC[C@H]2Nc1cnc([C@H]2C[C@@H]2C(=O)O)cn1 [Example 13] | 4
Cc1cc(C(=O)O)cc(C)c1-c1ccc(F)c2c1CC[C@H]2Nc1cnc([C@H]2C[C@@H]2C(=O)O)cn1 [Example 14] | 355
Cc1cccc(C)c1-c1ccc(F)c2c1CC[C@H]2Nc1cnc([C@H]2C[C@@H]2C(=O)O)cn1 [Example 15] | 7
O=C(O)[C@H]1C[C@@H]1c1cnc(N[C@@H]2CCc3c(-c4c(F)cccc4F)ccc(F)c32)cn1 [Example 16] | 77
O=C(O)[C@H]1C[C@@H]1c1cnc(N[C@@H]2CCc3c(-c4ccccc4C(F)(F)F)ccc(F)c32)cn1 [Example 17] | 23
Nc1cc(F)c(-c2ccc(F)c3c2CC[C@H]3Nc2cnc([C@H]3C[C@@H]3C(=O)O)cn2)c(F)c1 [Example 18] | 150
O=C(O)[C@H]1C[C@@H]1c1cnc(N[C@@H]2CCc3c(-c4c(F)cc(OC5CC5)cc4F)ccc(F)c32)cn1 [Example 19] | 56
Cc1cc(C(=O)N(C)C)cc(C)c1-c1ccc(F)c2c1CC[C@H]2Nc1cnc([C@H]2C[C@@H]2C(=O)O)cn1 [Example 20] | 75
Cc1ccc(Cl)c(-c2ccc(F)c3c2CC[C@H]3Nc2cnc([C@H]3C[C@@H]3C(=O)O)cn2)c1Cl [Example 21] | 4
COc1cc(C)c(-c2ccc(F)c3c2CC[C@H]3Nc2cnc([C@H]3C[C@@H]3C(=O)O)cn2)c(C)c1 [Example 22] | 8
O=C(O)[C@H]1C[C@@H]1c1cnc(N[C@@H]2CCc3c(-c4ccc(-c5cnco5)cc4)ccc(F)c32)cn1 [Example 23] | 144
COc1cc(OC)c(-c2ccc(F)c3c2CC[C@H]3Nc2cnc([C@H]3C[C@@H]3C(=O)O)cn2)c(OC)c1 [Example 24] | 128
O=C(O)[C@H]1C[C@@H]1c1cnc(N[C@@H]2CCc3c(-c4c(Cl)cccc4Cl)ccc(F)c32)cn1 [Example 25] | 7
N#CC1(c2ccccc2-c2ccc(F)c3c2CC[C@H]3Nc2cnc([C@H]3C[C@@H]3C(=O)O)cn2)CC1 [Example 26] | 367

Structure (SMILES) | EC50 [nM]
Cc1cc(O[C@@H]2CCOC2)cc(C)c1-c1ccc(F)c2c1CC[C@H]2Nc1cnc([C@H]2C[C@@H]2C(=O)O)cn1 [Example 27] | 13
COc1cc(OC)c(Cl)c(-c2ccc(F)c3c2CC[C@H]3Nc2cnc([C@H]3C[C@@H]3C(=O)O)cn2)c1Cl [Example 29] | 5
Cc1cc(CO)cc(C)c1-c1ccc(F)c2c1CC[C@H]2Nc1cnc([C@H]2C[C@@H]2C(=O)O)cn1 [Example 30] | 20
Cc1cc(OC2CCOCC2)cc(C)c1-c1ccc(F)c2c1CC[C@H]2Nc1cnc([C@H]2C[C@@H]2C(=O)O)cn1 [Example 31] | 9
Cc1cc(OCC2(C)COC2)cc(C)c1-c1ccc(F)c2c1CC[C@H]2Nc1cnc([C@H]2C[C@@H]2C(=O)O)cn1 [Example 32] | 7
Cc1cc(-c2ccc(=O)n(C)c2)cc(C)c1-c1ccc(F)c2c1CC[C@H]2Nc1cnc([C@H]2C[C@@H]2C(=O)O)cn1 [Example 33] | 6
Cc1cc(-c2ccnn2C)cc(C)c1-c1ccc(F)c2c1CC[C@H]2Nc1cnc([C@H]2C[C@@H]2C(=O)O)cn1 [Example 36] | 12
COc1cc(OC)c(F)c(-c2ccc(F)c3c2CC[C@H]3Nc2cnc([C@H]3C[C@@H]3C(=O)O)cn2)c1F [Example 37] | 81
Cc1cnc(-c2cc(C)c(-c3ccc(F)c4c3CC[C@H]4Nc3cnc([C@H]4C[C@@H]4C(=O)O)cn3)c(C)c2)nc1 [Example 38] | 4
Cc1cc(-c2nnnn2CC(C)(C)O)cc(C)c1-c1ccc(F)c2c1CC[C@H]2Nc1cnc([C@H]2C[C@@H]2C(=O)O)cn1 [Example 39] | 3
CC(C)c1ccccc1-c1ccc(F)c2c1CC[C@H]2Nc1cnc([C@H]2C[C@@H]2C(=O)O)cn1 [Example 40] | 16
Cc1cc(OCC2(O)CCOCC2)cc(C)c1-c1ccc(F)c2c1CC[C@H]2Nc1cnc([C@H]2C[C@@H]2C(=O)O)cn1 [Example 41] | 11
COc1cc(-c2cc(C)c(-c3ccc(F)c4c3CC[C@H]4Nc3cnc([C@H]4C[C@@H]4C(=O)O)cn3)c(C)c2)ccn1 [Example 42] | 5
Cc1cc(OCC2CCOC2)cc(C)c1-c1ccc(F)c2c1CC[C@H]2Nc1cnc([C@H]2C[C@@H]2C(=O)O)cn1 (stereo partly shown) [Example 43] | 18
COc1cc(F)c(-c2ccc(F)c3c2CC[C@H]3Nc2cnc([C@H]3C[C@@H]3C(=O)O)cn2)c(F)c1 [Example 44] | 90
CNC(=O)c1cc(C)c(-c2ccc(F)c3c2CC[C@H]3Nc2cnc([C@H]3C[C@@H]3C(=O)O)cn2)c(C)c1 [Example 45] | 23
Cc1cc(OCC(=O)O)cc(C)c1-c1ccc(F)c2c1CC[C@H]2Nc1cnc([C@H]2C[C@@H]2C(=O)O)cn1 [Example 48] | 839
CCc1cccc(CC)c1-c1ccc(F)c2c1CC[C@H]2Nc1cnc([C@H]2C[C@@H]2C(=O)O)cn1 [Example 49] | 4
O=C(O)[C@H]1C[C@@H]1c1cnc(N[C@@H]2CCc3c(-c4c(F)cc(F)cc4F)ccc(F)c32)cn1 [Example 50] | 74
Cc1cc(C#N)cc(C)c1-c1ccc(F)c2c1CC[C@H]2Nc1cnc([C@H]2C[C@@H]2C(=O)O)cn1 [Example 51] | 9
Cc1cc(OCC2(O)CCSCC2)cc(C)c1-c1ccc(F)c2c1CC[C@H]2Nc1cnc([C@H]2C[C@@H]2C(=O)O)cn1 [Example 52] | 10
Cc1cc(-c2cnccn2)cc(C)c1-c1ccc(F)c2c1CC[C@H]2Nc1cnc([C@H]2C[C@@H]2C(=O)O)cn1 [Example 54] | 4

Tested on: not listed separately
Assay: Chemical stability (degradation kinetics) in acidic aqueous media, HPLC recovery
Type: physicochemical
Settings: pH ca. 1.2, 37° C., acetonitrile/0.1 M aqueous HCl (2:3)
Description: Degradation kinetics is used to simulate chemical stability of compounds in the acidic part of the gastro intestinal tract. […] Their application as medical drugs to treat human diseases is therefore less restricted and troublesome.
The chemical stability of the compounds of the invention at pH value of ca. 1.2 is determined as follows:
Compound is dissolved in an HPLC vial either in a mixture of acetonitrile/0.1 M aqueous HCl (2:3; pH ca. 1.2) or in a mixture of acetonitrile/Mcllvaine buffer pH 7.4 (2:3) to get a concentration of approximately 0.25 mg/ml. The vial was then transferred into an HPLC autosampler system and maintained at a temperature of 37° C. A first sample is taken and injected immediately into a standard HPLC system with a UV DAD detector. Further samples are injected after 2, 4, 6, 8 and 10 hours. Amount of degraded compound is measured by determining the recovery rate of compound [%] for each injection using an HPLC standard gradient method. Therefore the peak area of the main peak for the first injection (AUt0) is determined and set as 100%. Peak area of the main peak is determined also for the further injections (AUtn, n=2, 4, 6, 8, 10) and expressed as fraction of […] [%].

Structure (SMILES) | Amount of degradation after 2 h [%]
Cc1cc(C(=O)NCC(C)(C)O)cc(C)c1-c1ccc(F)c2c1CC[C@H]2Oc1ccc([C@H]2C[C@@H]2C(=O)O)cc1 [Example 15 in WO 2013/178575, reference compound] | 3
